Reference: BindingDB's records for doi:10.1021/jm960097t (Duquesne University, 1996)

What was measured:
[1] = biological target: Thymidylate synthase (Streptococcus faecium); assay: The inhibitory concentration of compound was evaluated on Streptococcus faecium Thymidylate synthase
[2] = biological target: Thymidylate synthase (Pneumocystis carinii); assay: The inhibitory concentration of compound was evaluated on Pneumocystis carini Thymidylate synthase

| IC50 [1] [µM] | IC50 [2] [µM] | Compound |
| --- | --- | --- |
| > 25 | – | Cc1[nH]c2nc(N)[nH]c(=O)c2c1Sc1ccc2ccccc2c1 [2-Amino-6-methyl-5-(naphthalen-2-ylsulfanyl)-3,7-dihydro-pyrrolo[2,3-d]pyrimidin-4-one] |
| 29 | – | Cc1[nH]c2nc(N)[nH]c(=O)c2c1Sc1ccncc1 [2-Amino-6-methyl-5-(pyridin-4-ylsulfanyl)-3,7-dihydro-pyrrolo[2,3-d]pyrimidin-4-one] |
| > 30 | 60 | Cc1[nH]c2nc(N)[nH]c(=O)c2c1Sc1ccccc1 [2-Amino-6-methyl-5-phenylsulfanyl-3,7-dihydro-pyrrolo[2,3-d]pyrimidin-4-one] |
